Values quoted from earlier work, collected in patent US11052155B2, “Conjugates of CC-1065 analogs and bifunctional linkers” (priority 2010, dated 2021).

Details: in vivo

In the case of COc1c(O)c2c(c3cc(C(=O)N4CCc5c4c(O)c(OC)c4[nH]c(C(=O)N6CC7CC78C6=CC(=O)c6[nH]cc(C)c68)cc54)[nH]c13)CCN2C(N)=O (stereo not shown) [CC-1065], the hepatotoxicity is listed as “serious delayed hepatotoxicity”.
